Assay results as given in patent US8722052B2, “Vaccinia virus protein A46 peptide and use thereof” (priority 2008, dated 2014).
Several values for one entry are separate records, joined by “and”; a condition that tells them apart may be missing. Equal entries are not always repeated. Entries after “also recorded” stand apart in the source; their conditions may differ. Square brackets hold non-standard residues; d marks the D form. Ends that are not written are not given here.

Columns and labels:
TLR4 = experiment: LPS-induced TNFα in primary human PBMC, ELISA; format: cell-based; conditions: peptide 1, 5 or 25 μM 1 h before 10 ng/ml LPS, 6 h
TLR4, sequence (O00206 24-839): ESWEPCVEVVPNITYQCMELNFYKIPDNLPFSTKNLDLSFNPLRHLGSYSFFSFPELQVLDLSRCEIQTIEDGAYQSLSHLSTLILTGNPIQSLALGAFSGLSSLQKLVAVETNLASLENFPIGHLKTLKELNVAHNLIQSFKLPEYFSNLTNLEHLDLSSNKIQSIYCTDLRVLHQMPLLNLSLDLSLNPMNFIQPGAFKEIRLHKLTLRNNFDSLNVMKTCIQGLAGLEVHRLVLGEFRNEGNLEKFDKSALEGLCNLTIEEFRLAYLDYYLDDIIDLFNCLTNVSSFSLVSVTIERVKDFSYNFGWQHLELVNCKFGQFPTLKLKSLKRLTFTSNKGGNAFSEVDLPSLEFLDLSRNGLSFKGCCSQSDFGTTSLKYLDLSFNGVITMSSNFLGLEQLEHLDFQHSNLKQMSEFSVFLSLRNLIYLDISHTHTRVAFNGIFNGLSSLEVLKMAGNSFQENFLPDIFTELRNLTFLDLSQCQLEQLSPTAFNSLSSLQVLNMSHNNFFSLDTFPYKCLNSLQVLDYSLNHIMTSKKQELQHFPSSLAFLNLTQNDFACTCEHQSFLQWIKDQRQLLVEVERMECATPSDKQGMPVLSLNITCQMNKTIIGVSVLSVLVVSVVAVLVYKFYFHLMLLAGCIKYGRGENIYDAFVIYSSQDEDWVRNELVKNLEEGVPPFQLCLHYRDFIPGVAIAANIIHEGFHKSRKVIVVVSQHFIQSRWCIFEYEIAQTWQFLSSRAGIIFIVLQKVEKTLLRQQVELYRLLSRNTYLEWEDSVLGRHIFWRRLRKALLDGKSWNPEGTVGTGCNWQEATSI
TLR4, sequence (Q9Y6Y9 17-160 partner limits assumed): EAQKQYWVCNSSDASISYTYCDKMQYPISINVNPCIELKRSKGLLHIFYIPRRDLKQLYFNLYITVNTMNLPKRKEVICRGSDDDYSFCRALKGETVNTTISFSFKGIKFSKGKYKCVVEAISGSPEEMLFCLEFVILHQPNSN
Experimental: FIGS. 13A and B are bar charts showing the effect of A467 and A464 on LPS-induced TNFα production and on cell viability in primary human cells. Peripheral blood mononuclear cells (PBMCs) were seeded in 96 well plates (1 ×10^6 cells/ml) 24 hours before treatment. A467 (SEQ ID NO. 23) and A464 (SEQ ID NO. 20) were added to the cells at 1, 5 and 25 μM 1 hour before stimulating with 10 ng/ml LPS. The peptides were added into the unstimulated control wells at 25 μM. Supernatants were collected 6 hours after stimulation and assayed for TNFα production by ELISA (A). The cells were assayed for viability by the MTT assay (B). No peptides were added to the control wells (black bars). Data is representative of at least three experiments each performed in triplicate and is expressed as mean±s.d;
FIGS. 14A and B are bar charts showing the comparison of the inhibitory effect of the L- and D-forms of A464 on LPS-induced TNFα in primary human and murine cells. PBMC (1×10^6 cells/ml, (A)) or immortalised murine macrophages (1.5×10^5 cells/ml, (B)) were seeded in 96 well plates 24 hours before treatment. L-form and D-form A464 peptides (with the 9R delivery peptide on the C-terminus, SEQ ID NO. 20) were added to the cells at a concentration of 1, 5 or 25 μM 1 hour before stimulating with 10 ng/ml LPS. Supernatants were collected 6 hours after stimulation and assayed for either human (A) or murine (B) TNFα production by ELISA. No peptides were added to the control wells (black bars). Data is representative of at least three experiments each performed in triplicate and is expressed as mean±s.d;
FIGS. 15A and B are bar charts showing the effect of the D-form A464 peptide with the TAT delivery sequence on LPS induced TNFα in primary human and murine cells. PBMC (A) and immortalised murine macrophages (B) were seeded in 96 well plates 24 hours before treatment. D-form of A467 (SEQ ID NO. 37) and A464 (SEQ ID NO. 36) with the TAT delivery sequence were added to the cells at a concentration of 1, 5 or 25 μM 1 hour before stimulating with 10 ng/ml LPS. The peptides were added into the unstimulated control wells at 25 μM. Supernatants were collected 6 hours after stimulation and assayed for either human (A) or murine (B) TNFα production by ELISA. No peptides were added to the control wells (black bars). Data is representative of at least three experiments each performed in triplicate and is expressed as mean±s.d;
FIGS. 16A and B are bar charts showing the effect of attaching 9R to the N-terminus of A464 on LPS-induced TNFα in primary human and murine cells. Immortalised murine macrophages (A) and PBMC (B) were seeded in 96 well plates 24 hours before treatment. L-form of A467 (SEQ ID NO. 39) and A464 (SEQ ID NO. 38) with the 9R-delivery sequence at the N-terminus were added to the cells at a concentration of 1, 5 or 25 μM 1 hour before stimulating with 10 ng/ml LPS. The peptides were added into the unstimulated control wells at […]. Supernatants were collected 6 hours after stimulation and assayed for either murine (A) or human (B) TNFα production by ELISA. No peptides were added to the control wells (black bars). Data is representative of at least three experiments each performed in triplicate and is expressed as mean±s.d;
FIGS. 17A and B are bar charts showing the effect of the D-form A464 with 9R at the N-terminus on LPS-induced TNFα in primary human and murine cells. Immortalised murine macrophages (A) and PBMC (B) were seeded in 96 well plates 24 hours before treatment. D-form of A467 (SEQ ID NO. 39) and A464 (SEQ ID NO. 38) peptides with the 9R-delivery sequence at N-terminus were added to the cells at a concentration of 1, 5 or 25 μM 1 hour before stimulating with 10 ng/ml LPS. The peptides were added into the unstimulated control wells at 25 μM. Supernatants were collected 6 hours after stimulation and assayed for either murine (A) or human (B) TNFα production by ELISA. No peptides were added to the control wells (black bars). […]

IL-12p40 = experiment: LPS-induced serum IL-12p40 in mice, ELISA; format: in vivo; conditions: female BALB/c mice, serum at 4 hours; for serum IL-12p40 level compared with PBS-treated animals: i.v. 1 μg LPS with 3 mg/kg peptide; for inhibition of LPS-induced serum IL-12p40: i.v. single bolus 1 μg LPS with 3 mg/kg peptide
Experimental: FIG. 30 is a graph showing that A464 inhibits LPS-induced IL-12/23 p40 in vivo. Groups of 5 female BALB/c mice were injected i.v. with a single bolus of one of the following: PBS, 1 μg LPS, 1 μg LPS with 3 mg/kg D-9RN-A464 (SEQ ID NO. 38), 1 μg LPS with 3 mg/kg L-9RN-A464 (SEQ ID NO. 38), or 1 μg LPS with 3 mg/kg L-9RN-A467 (SEQ ID NO. 39). Four hours later, blood was harvested and serum derived. The serum was assayed for IL-12p40 by ELISA. Concentrations are expressed as pg/ml. * p<0.05, *** p<0.001 samples versus LPS. # p<0.01 samples versus PBS.
Cytokine and chemokine production from cells or mouse serum was measured by ELISA using Duoset kits from R&D systems, according to the manufacturer's instructions.
To do this we used a well characterised model of Gram negative sepsis, where mice are injected with LPS and serum cytokines are later analysed by ELISA. […] Mice were injected i.v. with LPS alone, or with peptide in the presence of LPS. Four hours later serum IL-12p40 concentrations were measured. […] Thus peptides based on the 464 sequence (SEQ ID No. 4) have efficacy in vivo. Thus peptides comprising the 464 sequence (SEQ ID No.4) can inhibit LPS induced proinflammatory IL-12p40 in vivo.

Row | Substance | inhibition of LPS-induced hTNFα production (TLR4) | serum IL-12p40 level compared with PBS-treated animals (IL-12p40; listed as L-9RN-A464, 3 mg/kg) | inhibition of LPS-induced serum IL-12p40 (IL-12p40) | serum IL-12p40 level compared with PBS-treated animals (IL-12p40; 3 mg/kg)
1 | 9RN-A464 (RRRRRRRRRKYSFKLILAEY) [Peptide 9RN-A464] | inhibition was only observed from 5-25 μM | not significantly different from mice receiving only PBS; also recorded: not significantly different from the PBS-treated animals | significantly inhibited LPS-induced IL-12p40 | –
2 | D-9RN-A464 ([dR][dR][dR][dR][dR][dR][dR][dR][dR][dK][dY][dS][dF][dK][dL][dI][dL][dA][dE][dY]) [Peptide D-9RN-A464] | inhibited TNFα only at concentration of 24 μM | – | significantly inhibited LPS-induced IL-12p40 | not significantly different from mice receiving only PBS; also recorded: not significantly different from the PBS-treated animals
3 | KYSFKLILAEYRRRRRRRRR [Peptide A464] | significant inhibition of TLR4 by A464 (SEQ ID No. 20) at 1 μM and 5 μM A464 (SEQ ID No. 20) peptide almost completely blocked hTNFα production | – | – | –
